3 compounds from ChEMBL document CHEMBL5316297, “Mechanistic Insight of Synthesized 1,4-Dihydropyridines as an Antidiabetic Sword against Reactive Oxygen Species” (J Med Chem, 2023) can be followed below.

For data set [1], the target named is T1, Alpha amylase (Homo sapiens, UniProt P0DUB6).
T1 sequence (P0DUB6 whole entry): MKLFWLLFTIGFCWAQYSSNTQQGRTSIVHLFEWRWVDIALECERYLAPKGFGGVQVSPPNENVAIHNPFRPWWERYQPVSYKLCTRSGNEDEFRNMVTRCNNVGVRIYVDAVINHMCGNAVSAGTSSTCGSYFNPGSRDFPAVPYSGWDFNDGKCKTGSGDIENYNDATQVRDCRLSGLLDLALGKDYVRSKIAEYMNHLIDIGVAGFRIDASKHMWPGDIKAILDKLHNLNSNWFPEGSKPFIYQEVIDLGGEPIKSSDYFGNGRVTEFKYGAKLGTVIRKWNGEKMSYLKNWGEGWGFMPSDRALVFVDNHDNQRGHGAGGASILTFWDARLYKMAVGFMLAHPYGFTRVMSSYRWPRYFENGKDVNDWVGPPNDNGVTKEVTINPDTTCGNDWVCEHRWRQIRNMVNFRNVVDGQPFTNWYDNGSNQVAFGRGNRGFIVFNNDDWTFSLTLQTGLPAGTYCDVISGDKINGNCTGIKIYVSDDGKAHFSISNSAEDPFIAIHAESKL
Briefly: Inhibition of alpha amylase (unknown origin) measured after 20 to 25 mins.

For data set [2], the system named is voltage dependent L/T-type calcium channel. Kind of data set: Inhibition of voltage dependent L/T-type calcium channel in human SH-SY5Y cells. The conditions noted are these: sh-sy5y.
Data set [3] can be described thus: Cytotoxicity against human THLE-2 cells assessed as cell growth inhibition. The class given is toxicity, cell-based.
The nature of data set [4]: Cytotoxicity against human MCF-10F cells assessed as cell growth inhibition. The class given is toxicity, cell-based.
Data set [5] in a line: Cytotoxicity against human WPE1-NA22 cells assessed as cell growth inhibition. The class given is toxicity, cell-based.
A short description of data set [6]: Cytotoxicity against HEK293 cells assessed as cell growth inhibition at 10 uM relative to control. The class given is toxicity, cell-based. The following applies: human, read-out: GI.
Data set [7] in a line: Cytotoxicity against human HCN-1A cells assessed as cell growth inhibition. Format: toxicity, cell-based.
Data set [8] is described as follows: Cytotoxicity against human ECT1/E6E7 cells assessed as cell growth inhibition. Format: toxicity, cell-based.
Data set [9] is described as follows: Cytotoxicity against human MRC5 cells assessed as cell growth inhibition. The class given is toxicity, cell-based.
A short description of data set [10]: Cytotoxicity against human MRC5 cells assessed as cell growth inhibition at 10 uM relative to control. The class given is toxicity, cell-based. The conditions noted are these: read-out: GI.
Data set [11] is described as follows: Cytotoxicity against human BJ cells assessed as cell growth inhibition at 10 uM relative to control. The conditions noted are these: read-out: GI. Format: toxicity, cell-based.
Data set [12] in a line: Cytotoxicity against human BJ cells assessed as cell growth inhibition. Format: toxicity, cell-based.
Data set [13] is described as follows: Cytotoxicity against human WPE1-NA22 cells assessed as cell growth inhibition at 10 uM relative to control. The class given is toxicity, cell-based. The following applies: read-out: GI.
The nature of data set [14]: Cytotoxicity against human HCN-1A cells assessed as cell growth inhibition at 10 uM relative to control. The class given is toxicity, cell-based. The following applies: read-out: GI.
The nature of data set [15]: Cytotoxicity against HEK293 cells assessed as cell growth inhibition. The following applies: human. The class given is toxicity, cell-based.
Data set [16] is described as follows: Cytotoxicity against human THLE-2 cells assessed as cell growth inhibition at 10 uM relative to control. The class given is toxicity, cell-based. The conditions noted are these: read-out: GI.
Data set [17] in a line: Cytotoxicity against human ECT1/E6E7 cells assessed as cell growth inhibition at 10 uM relative to control. Format: toxicity, cell-based. The following applies: read-out: GI.
Data set [18] in a line: Cytotoxicity against human MCF-10F cells assessed as cell growth inhibition at 10 uM relative to control. Format: toxicity, cell-based. The following applies: read-out: GI.

As usually defined, the IC50 is the concentration that inhibits the measured activity by half. `O=c1c(O)c(-c2ccc(O)c(O)c2)oc2cc(O)cc(O)c12` [QUERCETIN]: the IC50 in data set [1] is 8.21 µM.

Regarding `COC(=O)C1=C(C)NC(C)=C(C(=O)OC)C1c1ccccc1[N+](=O)[O-]` [NIFEDIPINE], in data set [2], the IC50 came out at 21.9 µM.

For orientation: GI50 means the concentration at which growth is held to half of that of the control. In the case of `COc1cccc2c1C(=O)c1c(O)c3c(c(O)c1C2=O)C[C@@](O)(C(=O)CO)C[C@@H]3O[C@H]1C[C@H](N)[C@H](O)[C@H](C)O1` [DOXORUBICIN], the GI50 in data set [3] worked out at 17.1 µM; in data set [4] it was 14.2 µM; in data set [5], 11.6 µM; in data set [7] it was 11.2 µM; in [8], 1.47 µM; in data set [9], 12.5 µM. Also, the values for the GI50 in data set [12] and in [15] were 8.91 µM and 9.69 µM, respectively. Further, the inhibition at 10 µM in data set [6] is 46%; in [10] it was 38.4%; in data set [11], 45.8%; in data set [13], 57.1%; in [14] it was 40.9%; in data set [16], 35.6%. Further, the inhibition at 10 µM in data set [17] came out at 33%; in data set [18], 41.6%.
